Assay results as given in patent US20150148235A1, “HERBICIDE-RESISTANT SUNFLOWER PLANTS WITH MULTIPLE HERBICIDE RESISTANT ALLELES OF AHASL1 AND METHODS OF USE” (NIDERA S.A., priority 2013, published 2015).

What was measured:
[1] = system: sunflower GM40 (A122T), HA425 (A205V) and progeny; assay type: in vivo, Helianthus annuus
Description: To determine the phenotypic interactions of the resistance gene A122T and the Imr1 gene (A205V) already described in IMI-R sunflowers (HA425), F1, F2 and BC1F1 populations from the cross GM40 (A122T)/HA425 (A205V) were evaluated at two herbicide applications rates (80 and 320 g. a. i. Ha^−1 of imazapyr). […] When F2 and BC1F1 populations were scored at the higher herbicide rate (320 g. a. i. Ha-1), which discriminates both parents, segregation for susceptibility was observed. Only two phenotypic classes could be detected, a resistant class with plants without any injury or slight symptoms and a susceptible phenotype that was killed like the control line HA425.

[2] = system: sunflower hybrids H1, H2, H3, H5, H6; experiment: Field trial Venado Tuerto 2006, imazapyr applied at V8 or R1 stage, Phytotoxicity Index, Example 4; details: for Mean Phytotoxicity Index (scale 0-50): H5 (L3 × WT, 122/Wild type), 160 g ai/ha applied at R1

## CC(C)C1(C)N=C(c2ncccc2C(=O)O)NC1=O (centres unmarked) [imazapyr]
[1]; 80 g a.i./ha (1x, lower rate)
  susceptible plants in F2 and BC1F1 populations of GM40 (A122T)/HA425 (A205V): No susceptible plants were observed
[1]; HA425 (A205V), 320 g a.i./ha
  response of control line HA425: killed
[2]; 14 DAT
  Mean Phytotoxicity Index (scale 0-50): 11.7
[2]; 21 DAT
  Mean Phytotoxicity Index (scale 0-50): 23.3
[2]; hybrids with at least one A122T allele (A122T/A122T, A122T/A205V, A122/WT), 160 g ai/ha at R1, 14 DAT
  Phytotoxicity Index (scale 0-50): less than 11.7
